One data set deals with isolated mouse islets. Briefly: insulin secretion from isolated mouse islets. The format is cell-based. To be noted: for glucose-stimulated insulin secretion: 16.7 mmol/l, 10^−9-10^−3 mol/l; for maximal stimulatory dose: NMRI mouse islets. As for the experimental part:
Islet from 6-10 NMRI mice were isolated and incubated in the presence of 16.7 mmol/l and 10^−9-10^−3 mol/l stevioside or 10^−9-10^−3 mol/l steviol. The results of these tests are illustrated in FIGS. 4a and 4b where each column represents mean±SEM from 24 incubations of single islets. Black bars in FIG. 4a indicate that stevioside is present and hatched bars indicate that stevioside is absent. Grey bars in FIG. 4b indicate that steviol is present and hatched bars indicate that steviol is absent. The influence of the maximal stimulatory doses of 10^−3 mol/l stevioside and 10^−6 mol/l steviol was studied in NMRI mouse islets over a range between 0 and 16.7 mmol/l glucose. […] Black bars in FIG. 7a indicate that stevioside is present and hatched bars indicate that stevioside is absent. Grey bars in FIG. 7b indicate that steviol is present and hatched bars indicate that steviol is absent.

Data set [1] relates to hamsters. To be noted: cited from earlier work.
Data set [2] relates to rats. The data set can be described thus: intravenous administration to rats. The settings on record: rat, in vivo.
The conditions of data set [3]: another study; cited from earlier work.
For data set [4], the system named is rats. To be noted: rat, in vivo; cited from earlier work.
A further data set concerns mice. To be noted: mouse, in vivo; cited from earlier work.
The subject of data set [5] is Salmonella typhimurium strains. To be noted: cited from earlier work.
A further data set relates to Goto-Kakizaki rats. Briefly: four-week test diets with glucose tolerance test in Goto-Kakizaki rats. The format is in vivo, rat. As for the experimental part: In the following example is the term “Soy” defined as a composition comprising 65 weight-% soy protein, at least 0.2 weight-% isoflavones and 18 weight-% soy dietary fibres, mostly cotyledon fibres. “Altromin” is a standard carbohydrate rich laboratory animal diet.” Four test diets, A, B, C and D as defined below, were administered for four weeks to four groups of adult rats. A: Altromin; n=12 (Alt). B: Altromin supplemented with stevioside; n=12; (Alt+Ste). C: 80% Soy plus 20% Altromin; n=12; (Soy). D: 80% Soy plus 20% Altromin plus stevioside; n=12; (Soy+Ste) Each experimental group consisted of twelve female Goto-Kakizaki with an age of 9 weeks. The rats received the stevioside (0.025 g/kg body weight/day) with the drinking water. By the end of the third experimental week intra-arterial catheters were implanted into the carotid artery thereby enabling blood sampling during a 240 minutes glucose-tolerance test which was carried out by the end of the experiment at week 4. Blood samples were drawn after a bolus infusion of 2.0 g D-glucose/kg body weight. Plasma concentrations of glucose, insulin, and glucagon were measured during the glucose tolerance test. Immediately before the glucose tolerance test fasting levels of triglycerides and cholesterol were determined. Concomitantly, the systolic blood pressure was measured using a tail cuff. (Plasma glucose was measured using MPR 3, 166 391, Glucose/GOD-PAP Method from Boehringer Mannheim) (Plasma insulin was measured using Sensitive Rat Insulin RIA, Cat # SRI-13K from Linco) (Plasma glucagon was measured using Glucagon RIA, Cat # GL-32K from Linco) (Blood pressure was measured using TSE Non-Invasive Blood Pressure Monitoring System from Technical Scientific Equipment GmbH) (Plasma cholesterol was measured GOD-PAP from Roche and triglycerides was measured using GHOD-PAP from Roche)

Data set [6] has as its system type II diabetic patients. Briefly: acute paired cross-over test meal study. The class given is in vivo, human. To be noted: 1 g orally with standard meal. From the text:
Twelve type II diabetic patients (4 female/8 males) with a mean age of 65.8±1.6 years, a diabetes duration of 6.0±1.3 years, a mean body mass index of 28.5±1.0, and a mean glycated hemoglobin HbAlc of 7.4+0.4 percent were included in the study. The experiment was an acute, paired, cross-over study in which two test meals were served during the experiments (A: Standard meal supplemented with 1 g of stevioside given orally; B: Standard meal given together with 1 g of gelatine (placebo) given orally. The total energy content of the test meals was 1725 kJ (protein 16 E %, fat 30 E %, carbohydrate 54 E %). Blood samples were drawn from an antecubital vein 30 minutes before and 240 minutes after ingestion of the test meal. The arterial blood pressure was continuously monitored during the experiment. Students paired t-test was used for comparing the effects of stevioside with placebo on the parameters measured. Data are given as mean±SEM.

The test system of another data set is F344 rats. The settings on record: cited from earlier work.
Data set [7] can be described thus: stevioside infusion at normal blood glucose. The class given is in vivo. The settings on record: bolus or constant intravenous infusion.
The conditions of data set [8]: rats; cited from earlier work.
The test system of data set [9] is spontaneously hypertensive rats. The settings on record: intravenously 200 mg/kg; cited from earlier work.
Data set [10] has as its system GK rats. Briefly: i.v. glucose tolerance test in GK rats. The class given is in vivo, rat. As for the experimental part:
In the following examples, the type II diabetic Goto-Kakizaki (GK) rats originated from Takeda Chemical Ind., Tokyo, Japan and were bred locally.
As examples of the effects of a compound including the chemical formulas II, stevioside was tested on normal Wistar rats and on GK rats. 2.0 g glucose/kg body weight and 0.2 g stevioside/kg body weight were dissolved in 0.9% saline and infused intravenously. The plasma glucose and insulin levels were measured over a period of 2 hours.
The results are shown in FIGS. 2a, 2b, 3a and 3b, were the O-O series (n=6 for Wistar and n=14 for GK) illustrate glucose infused alone and the {circle over (2)}-{circle over (2)} series (n=6 for Wistar and n=12 for GK) illustrate the combined glucose and stevioside infusion. Data are given as mean±SEM.
During a glucose tolerance test, an intravenous bolus of stevioside of 0.2 g/kg body weight was injected in GK rats (the {circle over (2)}-{circle over (2)} serie (n=6)). GK rats receiving 0.9% saline intravenously served as controls (the O-O serie (n=6)). Glucose 2.0 g/kg body weight was administered as a bolus at timepoint 0 min. The plasma glucagon responses are shown as mean±SEM in FIGS. 5a (control) and 5b (GK). The plasma glucagon was suppressed in the stevioside treated GK rat.

For data set [11] the following is noted: isolated perfused rat liver; cited from earlier work.
In data set [12] the test system is hamsters. The settings on record: doses as high as 2.5 g/kg body weight/day; cited from earlier work.
The subject of data set [13] is GK rats. Briefly: blood pressure during 6 weeks treatment of GK rats. To be noted: 0.025 g/kg body weight/24 h in drinking water. The class given is in vivo, rat. As for the experimental part:
GK rats were treated with stevioside 0.025 g/kg body weight/24 h for 6 weeks. Stevioside was administered in the drinking water. GK rats receiving drinking water with 0.111 g D-glucose/kg body weight/24 h served as controls. Systolic (FIG. 6a, control: O-O series, stevioside-treated: {circle over (2)}-{circle over (2)} series) and diastolic (FIG. 6b, control: O-O series, stevioside-treated: {circle over (2)}-{circle over (2)} series) blood pressures were measured on the tail.

Data set [14] relates to isolated normal pancreatic rat islets. The settings on record: 7 mmol/l D-glucose, 1,0 mmol/l; cited from earlier work.

Molecules are shown by their SMILES. “Also recorded” adds a separate entry of the source.

With `C=C1C[C@@]23CC[C@H]4[C@@](C)(CCC[C@@]4(C)C(=O)O)[C@@H]2CC[C@]1(O)C3` [steviol], in the data set on isolated mouse islets, the “stimulation of insulin secretion, steviol compared with stevioside” value is reported as “stimulate the insulin secretion to a greater extent”; the glucose-stimulated insulin secretion entry is recorded as “capable of potentiating glucose-stimulated insulin secretion”; the maximal stimulatory dose is 10^−6 mol/l. In addition, the LD50 in the data set with hamsters [1] (hamster, in vivo) was 5-6 g/kg body weight. In addition, in the data set with hamsters [1] (hamsters), the “pathology accompanying lethal dose” value was “degeneration of the proximal tubular cells”. Also, the “effect when administered intravenously to rats” value with rats [2] is “anti-hyperglycemic, glucagonostatic and insulinotropic effect”. The mutagenicity entry in data set [3] was “dose-related positive responses”. Also, the LD50 result with rats [4] was “higher than 15 g/kg body weight”. Besides, in the data set with mice, the LD50 result was “higher than 15 g/kg body weight”. Further, in data set [5], the mutagenic effect entry is on record as “no mutagenic effect”.
In the case of `C=C1C[C@@]23CC[C@H]4[C@@](C)(CCC[C@@]4(C)C(=O)O[C@@H]4O[C@H](CO)[C@@H](O)[C@H](O)[C@H]4O)[C@@H]2CC[C@]1(O[C@@H]1O[C@H](CO)[C@@H](O)[C@H](O)[C@H]1O[C@@H]1O[C@H](CO)[C@@H](O)[C@H](O)[C@H]1O)C3` [stevioside], in the data set on isolated mouse islets, the glucose-stimulated insulin secretion result is reported as “capable of potentiating glucose-stimulated insulin secretion” and the maximal stimulatory dose is recorded as 10^−3 mol/l. In the data set on Goto-Kakizaki rats (both Altromin and soy groups), the “area under the plasma-glucagon response curve, in words” value is “significantly reduced”. In the data set on Goto-Kakizaki rats (glucose tolerance test), the “area under the glucose response curve, in words” value is listed as “reduced the incremental area (IAUC) under the glucose response curve”; the “first phase insulin response, in words” value was “significantly improved the first phase insulin responses”; the “insulin response curve 0 to 240 minutes, in words” value is on record as “did not alter the insulin responses”. The “fasting triglyceride levels, in words” value in the data set with Goto-Kakizaki rats (rat, in vivo) is given as “significant suppression of the fasting triglyceride levels”. In the data set on Goto-Kakizaki rats (stevioside in combination with Altromin), the “suppression of the systolic blood pressure (Δ)” value is recorded as −28 mmHg. The “suppression of the systolic blood pressure (Δ)” value with Goto-Kakizaki rats (stevioside in combination with soy) is −21 mmHg. Also, the “effect when administered intravenously to rats” value in the data set with rats [2] is “anti-hyperglycemic, glucagonostatic and insulinotropic effect”. Moreover, in data set [6], the “absolute IAUC postprandial blood glucose” value was 522±64 mmol/l x 240 min, the “insulin response (IAUC)” value is recorded as “the difference did not reach statistical significance”, the postprandial glucagon levels was found to be 281±33 and the “reduction of postprandial blood glucose response compared to placebo” value is recorded as 18±5%. Further, the carcinogenicity result in the data set with F344 rats is given as “not carcinogenic”. Moreover, the hypoglycemia entry in data set [7] is recorded as “did not cause any hypoglycemia”. Further, the route of excretion result in data set [8] was “excreted by the urine”. The “fall in the systolic blood pressure” value in data set [9] is “only small”. Further, the mutagenicity result in data set [3] was “not mutagenic”. The “time after which significant decrease of plasma glucose was observed” value in the data set on GK rats [10] (2.0 g glucose/kg + 0.2 g stevioside/kg i.v.) is reported as 30 min. Moreover, the plasma glucose response result in the data set with GK rats [10] (2.0 g glucose/kg + 0.2 g stevioside/kg i.v., 2 hours) was “inhibited blood glucose responses; also recorded: diminished glucose response”. The plasma insulin response result in the data set with GK rats [10] (2.0 g glucose/kg + 0.2 g stevioside/kg i.v., compared to the Wistar rat) was “pronounced increase in the insulin response”. Further, the plasma glucagon response result in the data set on GK rats [10] (i.v. bolus 0.2 g/kg, glucose 2.0 g/kg) is listed as “suppressed”. Further, in data set [11], the metabolism result is on record as “not metabolised”. In addition, in the data set with hamsters [12], the “effect on growth or reproduction” value was “no effect on growth or reproduction”. The “time of treatment after which decrease in blood pressure was detectable” value with GK rats [13] is recorded as 2 weeks. In the data set with GK rats [13] (6 weeks, systolic and diastolic, tail), the “decrease in the blood pressure” value is 10-15%. Moreover, the mutagenic effect entry in data set [5] is on record as “no mutagenic effect”. In addition, the insulin output result in [14] was “significant increase in insulin output”.

Values taken from US20040081712A1, “Substance for treatment of non-insulin dependent diabetes mellitus, hypertension and/or the metabolic syndrome” (priority 2001, published 2004).
